Test results reported in ChEMBL document CHEMBL3352035, “Design and synthesis of new 7-(N-substituted-methyl)-camptothecin derivatives as potent cytotoxic agents” (Bioorg Med Chem Lett, 2014).
pIC50: −log10 of the molar value.

Tests used:
A549 [1] = assay: Cytotoxicity against human A549 cells after 72 hrs sulforhodamine B colorimetric assay; conditions: A549, 72 h
KB = assay: Cytotoxicity against human KB cells after 72 hrs sulforhodamine B colorimetric assay
MDA-MB-231 = assay: cells; conditions: Homo sapiens, MDA-MB-231, 72 h
Description: Cytotoxicity against human MDA-MB-231 cells after 72 hrs sulforhodamine B colorimetric assay

cells = conditions: Homo sapiens, KBVIN, 72 h
Description: Cytotoxicity against multidrug-resistant human KBVIN cells after 72 hrs sulforhodamine B colorimetric assay

[2] = Ratio of topotecan IC50 to compound IC50 for multidrug-resistant human KBVIN cells after 72 hrs sulforhodamine B colorimetric assay; type: functional
A549 [3] = assay: Ratio of topotecan IC50 to compound IC50 for human A549 cells after 72 hrs sulforhodamine B colorimetric assay; type: functional

Compound	pIC50 (A549 [1])	pIC50 (KB)	pIC50 (MDA-MB-231)	pIC50 (cells)	Ratio IC50 [2]	Ratio IC50 (A549 [3])
CC[C@@]1(O)C(=O)OCc2c1cc1n(c2=O)Cc2c-1nc1ccccc1c2CNc1ccc(OC)cc1	7.33	7.12	7.07	7.11		
CC[C@@]1(O)C(=O)OCc2c1cc1n(c2=O)Cc2c-1nc1ccccc1c2CN1CCCCC1	7.66	7.30	7.16	7.69		
CC[C@@]1(O)C(=O)OCc2c1cc1n(c2=O)Cc2c-1nc1ccccc1c2CN1CCCC1	7.81	7.43	7.22	7.68		
CC[C@@]1(O)C(=O)OCc2c1cc1n(c2=O)Cc2c-1nc1ccccc1c2CN1CCN(C)CC1	7.21	7.05	6.96	6.56		
CC[C@@]1(O)C(=O)OCc2c1cc1n(c2=O)Cc2c-1nc1ccccc1c2CN(C(C)C)C(C)C	6.27	6.09	5.95	5.97		
CCCNCc1c2c(nc3ccccc13)-c1cc3c(c(=O)n1C2)COC(=O)[C@]3(O)CC	8.32	7.82	7.50	7.66	7	7
CC[C@@]1(O)C(=O)OCc2c1cc1n(c2=O)Cc2c-1nc1ccccc1c2CNCCO	6.82	6.68	6.42	6.74		
CC[C@@]1(O)C(=O)OCc2c1cc1n(c2=O)Cc2c-1nc1ccccc1c2CNc1ccc(C)cc1	7.23	7.09	7.03	7.10		
CC[C@@]1(O)C(=O)OCc2c1cc1n(c2=O)Cc2c-1nc1ccccc1c2CNc1ccccc1OC	8.64	8.34	7.58	7.83	7	7
CC[C@@]1(O)C(=O)OCc2c1cc1n(c2=O)Cc2c-1nc1ccccc1c2CNc1ccc(F)cc1	8.20	8.30	7.52	7.88	7	7
CC[C@@]1(O)C(=O)OCc2c1cc1n(c2=O)Cc2c-1nc1ccccc1c2CNc1ccc(Cl)cc1	7.41	7.40	7.19	7.89		
CC[C@@]1(O)C(=O)OCc2c1cc1n(c2=O)Cc2c-1nc1ccccc1c2CNc1ccc(Br)cc1	7.23	7.09	6.94	7.20		
CC[C@@]1(O)C(=O)OCc2c1cc1n(c2=O)Cc2c-1nc1ccccc1c2CNc1cccc2ccccc12	7.44	7.21	7.19	7.11		
CC[C@@]1(O)C(=O)OCc2c1cc1n(c2=O)Cc2c-1nc1ccccc1c2CNc1cccc(Cl)c1	7.30	7.15	7.02	7.16		
CC[C@@]1(O)C(=O)OCc2c1cc1n(c2=O)Cc2c-1nc1ccccc1c2CNc1ccccc1Cl	7.77	7.43	7.24	7.89		
CC[C@@]1(O)C(=O)OCc2c1cc1n(c2=O)Cc2c-1nc1ccccc1c2CNCc1ccccc1	6.91	6.74	6.47	6.93		
CC[C@@]1(O)C(=O)OCc2c1cc1n(c2=O)Cc2c-1nc1ccccc1c2CNc1ccccn1	7.29	7.10	6.97	7.15		
CC[C@@]1(O)C(=O)OCc2c1cc1n(c2=O)Cc2c-1nc1ccccc1c2CNc1ccccc1	7.27	7.11	7.11	7.32		
CC[C@@]1(O)C(=O)OCc2c1cc1n(c2=O)Cc2c-1nc1ccccc1c2CNC1CCCCC1	7.73	7.44	7.27	7.78		
CC(=O)O[C@H]1C(=O)[C@@]2(C)[C@H]([C@H](OC(=O)c3ccccc3)[C@]3(O)C[C@H](OC(=O)[C@H](O)[C@@H](NC(=O)c4ccccc4)c4ccccc4)C(C)=C1C3(C)C)[C@]1(OC(C)=O)CO[C@@H]1C[C@@H]2O [PACLITAXEL]	8.24	8.41	8.18	5.84		
